In paper PMC2600596 (European journal of pharmacology, 2008):

Experiments:
mu opioid receptor = format: binding; conditions: whole CHO cells, data not shown
[1] = target: T1, hMOR (human mu opioid receptor) (Homo sapiens, UniProt P35372); format: binding
hMOR = conditions: pH 7.5; cited from earlier work
[2] = target: T1, hMOR (human mu opioid receptor); format: cell-based

T1 sequence (P35372 whole entry): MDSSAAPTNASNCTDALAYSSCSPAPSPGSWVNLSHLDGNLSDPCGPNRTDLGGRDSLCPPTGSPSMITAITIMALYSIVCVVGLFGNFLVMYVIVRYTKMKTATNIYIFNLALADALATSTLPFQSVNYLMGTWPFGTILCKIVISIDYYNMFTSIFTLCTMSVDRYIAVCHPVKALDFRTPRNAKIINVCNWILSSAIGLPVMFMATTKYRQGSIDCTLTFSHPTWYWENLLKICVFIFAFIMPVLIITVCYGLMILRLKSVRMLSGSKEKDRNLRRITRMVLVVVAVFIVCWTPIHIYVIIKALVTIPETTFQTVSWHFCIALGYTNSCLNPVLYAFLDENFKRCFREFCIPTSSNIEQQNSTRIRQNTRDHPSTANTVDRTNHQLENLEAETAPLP

Row | Structure (SMILES) | [3H]-naloxone radioligand binding displaced (mu opioid receptor) | Hill Slope [1] | Ki ([1]; pH 7.4) [nM] | Ki (hMOR) [nM] | Imax (maximum percent inhibition of [3H]-cAMP accumulation) [2] [%]
1 | C=CC[N+]1(C)CC[C@]23c4c5ccc(O)c4O[C@H]2C(=O)CC[C@@]3(O)[C@H]1C5 (stereo partly shown) [naloxone methiodide] | More than 94% | – | – | – | –
2 | COC(=O)/C=C/C(=O)N[C@@H]1CC[C@@]2(O)[C@H]3Cc4ccc(O)c5c4[C@@]2(CCN3CC2CC2)[C@H]1O5 [β-FNA, β-funaltrexamine] | – | −1.01 | 1.85 | 0.3 | –
3 | Oc1ccc2c3c1O[C@H]1c4[nH]c5c(c4C[C@@]4(O)[C@@H](C2)N(CC2CC2)CC[C@]314)C[C@@]1(O)[C@H]2Cc3ccc(O)c4c3[C@@]1(CCN2CC1CC1)[C@H]5O4 [nor-BNI, nor-binaltorphimine] | – | −0.99 | – | 21 | –
4 | C[C@@H](NC(=O)[C@@H](N)Cc1ccc(O)cc1)C(=O)NCC(=O)N(C)[C@@H](Cc1ccccc1)C(=O)NCCO [DAMGO, [D-Ala^2, N-Me-Phe^4, Gly^5-ol]-enkephalin] | – | −0.85 | – | – | 88.8
5 | Oc1ccc2c3c1O[C@H]1c4[nH]c5ccccc5c4C[C@@]4(O)[C@@H](C2)N(CC2CC2)CC[C@]314 [Naltrindole, naltrindole] | – | −0.99 | – | 6.3 | –
